In brackets after ≈: the same amount, converted by molar mass. Like-named read-outs stand apart in the source and are kept apart here.
Tests used:
Assay type in all cases: physicochemical
[1] = Static stability on storage at controlled temperature/RH (XRPD, purity)
Text: (§1) See tables below for the summarized results.

[2] = Gravimetric vapour sorption (GVS); details: for GVS total weight change 0-90% RH: 25° C.
Description: Gravimetric Vapour Sorption (GVS)
Sorption isotherms were obtained using a SMS DVS Intrinsic moisture sorption analyser, controlled by DVS Intrinsic Control software v1.0.1.2 (or v 1.0.1.3). The sample temperature was maintained at 25° C. by the instrument controls. The humidity was controlled by mixing streams of dry and wet nitrogen, with a total flow rate of 200 ml/min The relative humidity was measured by a calibrated Rotronic probe (dynamic range of 1.0-100% RH), located near the sample. The weight change, (mass relaxation) of the sample as a function of % RH was constantly monitored by the microbalance (accuracy ±0.005 mg). Typically 5-20 mg of sample was placed in a tared mesh stainless steel basket under ambient conditions. The sample was loaded and unloaded at 40% RH and 25° C. (typical room conditions). A moisture sorption isotherm was performed as outlined below (2 scans giving 1 complete cycle). The standard isotherm was performed at 25° C. at 10% RH intervals over a 0-90% RH range. Data analysis was carried out using Microsoft Excel using DVS Analysis Suite v6.2 (or 6.1 or 6.0).

[3] = Gravimetric vapour sorption (GVS) isotherm, hygroscopicity; details: for weight increase (GVS): increase in relative humidity from about 0 to about 90% relative humidity
[4] = Competitive slurry/water activity experiments with Forms 1 and 6
Text: IPA/water and ACN/water were selected as suitable solvents for the competitive slurry/water activity experiments. These solvent mixtures were selected to have some solubility of the Compound 1 free base and to be able to obtain a wide range of water activities by varying the water content. IPA/water was selected as this solvent often formed solvated forms of the free base and ACN/water was selected as this solvent produced only Form 1 of the free base during the polymorph screening experiments.
There was one exception to this—the IPA/water sample at 50° C. and at a water activity of 0.8 gave Form 1 rather than Form 4.

[5] = Static storage stability of solid forms (40° C./75% RH, 25° C./96% RH), form checked by XRPD; details: for Static Stability 40° C./75% RH: dried screening sample, solid form after 7 and 36 days at 40° C./75% RH
[6] = Kinetic solubility after 30 min in water and in 0.1M HCl; details: for solubility kinetic at 30 min: thermodynamic from solid, cocrystal, in duplicate, read-out: 30 min Kinetic solubility (pH)
Text: as §1

[7] = Solubility screen: solubility assessment of amorphous Compound 1 in solvents; details: thermodynamic from solid, room temperature
Description: Amorphous Compound 1 (30 mg) was weighed out and 100 μl (˜3 vols) solvent was added at room temperature. Many samples initially dissolved but precipitated back out again after stirring for a few minutes. It was assumed that these samples had crystallized, so additional portions of solvent were added to determine the solubility of the crystalline material. See Table 1 for solubility assessment of amorphous Compound 1. […]

[8] = after 63 days, no change in form but loss of crystallinity
[9] = 7 d storage at 40° C./75% RH and at 25° C./97% RH, result stated for both conditions

Structure (SMILES): C[C@H](NC(=O)c1c(N)nn2cccnc12)c1cc2cccc(C#Cc3cnn(C)c3)c2c(=O)n1-c1ccccc1 [Form 1 reference]
- Static stability at 25° C./96% RH, XRPD ([1]; after 7 days): no change after 7 days,
- Static stability at 40° C./75% RH, XRPD ([1]; after 7 days): no change after 7 days,
- Static stability at 25° C./96% RH, form by XRPD [1, 8]: after 63 days no change
- Static stability at 40° C./75% RH, form by XRPD [1, 8]: after 63 days no change
- Hygroscopicity by GVS ([2]; 0-90% RH): non-
- GVS total weight change 0-90% RH ([2]; 0-90% RH): ~0.5 wt %

Structure (SMILES): C[C@H](NC(=O)c1c(N)nn2cccnc12)c1cc2cccc(C#Cc3cnn(C)c3)c2c(=O)n1-c1ccccc1 [Form 1, (S)-2-amino-N-(1-(8-((1-methyl-1H-pyrazol-4-yl)ethynyl)-1-oxo-2-phenyl-1,2-dihydroisoquinolin-3-yl)ethyl)pyrazolo[1,5-a]pyrimidine-3-carboxamide]
- hygroscopicity [3]: non-hygroscopic
- weight increase (GVS) [3]: about 0.5%
- Relative stability of forms in ACN/water slurries ([4]; all ACN/water experiments except 50° C. and 5° C. at water activity 0.8): most stable form
- Relative stability of forms in IPA/water slurries ([4]; all temperatures (5, 25, 50° C.) and water activities (0.2-0.8), slurried 4 days): more stable than Form 6
- stability after storage ([5]; 25° C./96% RH for more than 9 months): stable
- stability after storage ([5]; 40° C./75% RH for more than 9 months): stable
- Static Stability 40° C./75% RH [5]: no change after 7

Structure (SMILES): C[C@H](NC(=O)c1c(N)nn2cccnc12)c1cc2cccc(C#Cc3cnn(C)c3)c2c(=O)n1-c1ccccc1 [Form 2, (S)-2-amino-N-(1-(8-((1-methyl-1H-pyrazol-4-yl)ethynyl)-1-oxo-2-phenyl-1,2-dihydroisoquinolin-3-yl)ethyl)pyrazolo[1,5-a]pyrimidine-3-carboxamide]
- hygroscopicity [3]: non-hygroscopic
- weight increase (GVS) [3]: about 1.3%
- Static Stability 40° C./75% RH [5]: amorphous after 7

Structure (SMILES): C[C@H](NC(=O)c1c(N)nn2cccnc12)c1cc2cccc(C#Cc3cnn(C)c3)c2c(=O)n1-c1ccccc1 [Form 3, (S)-2-amino-N-(1-(8-((1-methyl-1H-pyrazol-4-yl)ethynyl)-1-oxo-2-phenyl-1,2-dihydroisoquinolin-3-yl)ethyl)pyrazolo[1,5-a]pyrimidine-3-carboxamide]
- Static Stability 40° C./75% RH [5]: remains Form 3

Structure (SMILES): C[C@H](NC(=O)c1c(N)nn2cccnc12)c1cc2cccc(C#Cc3cnn(C)c3)c2c(=O)n1-c1ccccc1 [Form 4, (S)-2-amino-N-(1-(8-((1-methyl-1H-pyrazol-4-yl)ethynyl)-1-oxo-2-phenyl-1,2-dihydroisoquinolin-3-yl)ethyl)pyrazolo[1,5-a]pyrimidine-3-carboxamide]
- Static Stability 40° C./75% RH [5]: remains Form 4

Structure (SMILES): C[C@H](NC(=O)c1c(N)nn2cccnc12)c1cc2cccc(C#Cc3cnn(C)c3)c2c(=O)n1-c1ccccc1 [Form 6, (S)-2-amino-N-(1-(8-((1-methyl-1H-pyrazol-4-yl)ethynyl)-1-oxo-2-phenyl-1,2-dihydroisoquinolin-3-yl)ethyl)pyrazolo[1,5-a]pyrimidine-3-carboxamide]
- weight increase (GVS) [3]: about 14%
- Relative stability of forms in ACN/water slurry ([4]; 5° C., ACN/water, water activity 0.8 (15 vol % water)): more stable than Form 1
- Static stability at 40° C./75% RH, XRPD ([1]; after 7 days): subtle changes in XRPD after
- Static stability at 25° C./96% RH, XRPD ([1]; after 26 days): no change in XRPD after 26
- Static stability at 40° C./75% RH, XRPD ([1]; after 26 days): no further changes after 26
- Hygroscopicity by GVS ([2]; 0-90% RH): hygroscopic. Large steps 40-60%
- GVS total weight change 0-90% RH ([2]; 0-90% RH): 15.0 wt %

Structure (SMILES): C[C@H](NC(=O)c1c(N)nn2cccnc12)c1cc2cccc(C#Cc3cnn(C)c3)c2c(=O)n1-c1ccccc1 [Form 7, (S)-2-amino-N-(1-(8-((1-methyl-1H-pyrazol-4-yl)ethynyl)-1-oxo-2-phenyl-1,2-dihydroisoquinolin-3-yl)ethyl)pyrazolo[1,5-a]pyrimidine-3-carboxamide]
- Static Stability 40° C./75% RH [5]: remains Form 7

Structure (SMILES): C[C@H](NC(=O)c1c(N)nn2cccnc12)c1cc2cccc(C#Cc3cnn(C)c3)c2c(=O)n1-c1ccccc1 [Form P1C3]
- weight increase (GVS) [3]: about 3.7%
- HPLC purity change after 7 d 40° C. 75% RH 25° C. 97% RH [1, 9]: < 3% for both.
- XRPD after 7 d 40° C. 75% RH 25° C. 97% RH [1, 9]: no change
- XRPD after 7 d at 25° C. 97% RH ([1]; after 7 d): no changes
- Static stability at 40° C./75% RH, XRPD ([1]; after 7 days): no changes
- Stability at 25° C./96% RH, purity and XRPD ([1]; after a week): no significant change
- Stability at 40° C./75% RH, purity and XRPD ([1]; after a week): no significant change
- solubility kinetic at 30 min ([6]; 0.1M HCl, pH 1.3, simulated gastric fluid, in 0.1M HCl, pH 1.3): 0.02 mg/mL (≈ 0.0378 mM)
- Kinetic solubility in 0.1M HCl compared with the free base ([6]; after 30 min, 0.1M HCl): very similar to the free base solubility
- Kinetic solubility in water compared with the free base ([6]; after 30 min, water): slightly higher solubility values
- Kinetic solubility with respect to the free base ([6]; summary statement): slight improve in solubility
- solubility kinetic at 30 min ([6]; water, pH 2.9, water, in water, pH 2.9, 3.0): 0.04 mg/mL (≈ 0.0757 mM)
- GVS hysteresis [2]: No hysteresis
- GVS weight gain from 0-90% RH ([2]; 0-90% RH): 3.67%
- Hygroscopicity by GVS ([2]; 0-90% RH): moderately hygroscopic
- GVS weight gain ([2]; from 0-90% RH, cycle 2): 3.67%

Structure (SMILES): C[C@H](NC(=O)c1c(N)nn2cccnc12)c1cc2cccc(C#Cc3cnn(C)c3)c2c(=O)n1-c1ccccc1 [amorphous Compound 1, (S)-2-amino-N-(1-(8-((1-methyl-1H-pyrazol-4-yl)ethynyl)-1-oxo-2-phenyl-1,2-dihydroisoquinolin-3-yl)ethyl)pyrazolo[1,5-a]pyrimidine-3-carboxamide]
- solubility ([7]; organic solvent or mixture, in 1,2-Dimethoxyethane): < 17 mg/mL
- solubility ([7]; organic solvent or mixture, in 1,4-Dioxane): < 17 mg/mL
- solubility ([7]; organic solvent or mixture, in 1-Propanol): < 17 mg/mL
- solubility ([7]; organic solvent or mixture, in 2-Methoxyethanol): ≥ 333 mg/mL
- solubility ([7]; organic solvent or mixture, in 2-Methyl-1-propanol): < 17 mg/mL
- solubility ([7]; organic solvent or mixture, in 2-Propanol): < 17 mg/mL
- solubility ([7]; organic solvent or mixture, in Acetone): < 17 mg/mL
- solubility ([7]; organic solvent or mixture, in Acetonitrile): < 17 mg/mL
- solubility ([7]; organic solvent or mixture, in Chloroform): < 17 mg/mL
- solubility ([7]; organic solvent or mixture, in Cyclohexane): < 17 mg/mL
- solubility ([7]; organic solvent or mixture, in Dichloromethane): 17 to 20 mg/mL (≈ 32.2 to 37.8 mM)
- solubility ([7]; organic solvent or mixture, in Dimethyl sulfoxide): ≥ 333 mg/mL
- solubility ([7]; organic solvent or mixture, in Ethanol): < 17 mg/mL
- solubility ([7]; organic solvent or mixture, in Ethyl acetate): < 17 mg/mL
- solubility ([7]; organic solvent or mixture, in Ethyleneglycol): < 17 mg/mL
- solubility ([7]; organic solvent or mixture, in IPA/Water (95/5 v/v)): < 17 mg/mL
- solubility ([7]; organic solvent or mixture, in Isopropyl acetate): < 17 mg/mL
- solubility ([7]; organic solvent or mixture, in MEK): < 17 mg/mL
- solubility ([7]; organic solvent or mixture, in MIBK): < 17 mg/mL
- solubility ([7]; organic solvent or mixture, in Methanol): < 17 mg/mL
- solubility ([7]; organic solvent or mixture, in N,N-Dimethylformamide): ≥ 333 mg/mL
- solubility ([7]; organic solvent or mixture, in Nitromethane): 25 to 33 mg/mL (≈ 47.3 to 62.4 mM)
- solubility ([7]; organic solvent or mixture, in THF/Water (95/5 v/v)): < 17 mg/mL
- solubility ([7]; organic solvent or mixture, in Tetrahydrofuran): < 17 mg/mL
- solubility ([7]; organic solvent or mixture, in Toluene): < 17 mg/mL
- solubility ([7]; organic solvent or mixture, in n-Heptane): < 17 mg/mL
- solubility ([7]; organic solvent or mixture, in tert-Butylmethyl ether): < 17 mg/mL
- solubility ([7]; in Water): < 17 mg/mL

Source: patent publication US12384792B2, “Solid forms of isoquinolinones, and process of making, composition comprising, and methods of using the same” (Twelve Therapeutics, Inc., priority 2015, dated 2025)
